Data: patent US20110190165A1, “HIGH THROUGHPUT METHODS OF IDENTIFYING NEUTRAL LIPID SYNTHASES” (priority 2008, published 2011)

Legend:
[1] = tested in humans; cited from earlier work
ACAT = details: ACAT1 vs ACAT2; cited from earlier work
[2] = system: quadruple knock-out strain cultures harboring vector with either DGAT1 or LacZ gene; assay: Growth of quadruple knock-out yeast expressing DGAT1 or LacZ on solid medium supplemented with fatty acids; assay type: cell-based, Saccharomyces cerevisiae; details: for selectivity of the media at lowered concentration: 0.5 mM fatty acid; for suitability for selection: 0.5 mM (500 μM) fatty acid; for growth of DGAT1 and LacZ cultures: 1 mM fatty acid
Description: (A) Plates of YNBG with and without supplement of 1 mM of oleic acid (C18:1) dissolved in ethanol. The plate without FA contained the same volume of ethanol only. (B) Plates of YNBG supplemented with 1 mM of palmitoleic (16:1^cisΔ9), linoleic (18:2^cisΔ9,12), α-linolenic (C18:3), docosahexaenoic (C22:6), ricinoleic (C18:1 OH), erucic (C22:1) and 0.5 mM of palmitic (C16:0) and stearic (C18:0) acids. The FAs were dissolved in ethanol at 0.5M or 0.25M and added to the YNBG prior to plating. (C) Plates supplemented with oleic, α-linolenic and docosahexaenoic acids at the final concentrations indicated. (D) Selection of yeast cells in medium with FA after transformation. H1246 cells were transformed with 1 μg of pYESBnDGAT1 (column 1), 1 μg of pYESLacZ (column 2) and 0.1 μg of pYESBnDGAT1 mixed with 0.9 μg of pYESLacZ (column 3). After transformation, yeast cells were recovered in liquid YNBD medium for 6 hours, inoculated in YNBG plates with or without supplement of 1 mM oleic acid and incubated at 30° C. for 6 days.

[3] = system: S. cerevisiae strain H1246 (quadruple knock-out); assay: Growth of knock-out yeast in liquid medium supplemented with oleic acid; details: growth measured for 72 hours
Description: Oleic acid, dissolved in ethanol at 0.5M, was supplemented to the cultures at the final concentrations indicated. The cultures were incubated at 30 °C, 250 rpm and the growth was monitored for 72 hours.
Three yeast strains (wild type, dga1 knock-out and quadruple knock-out) were transformed with yeast expression vector pYES2.1-TOPO (Invitrogen) containing a cDNA coding for DGAT1 from several oilseed plants (canola, flax or castor bean). The same vector containing the gene coding for the bacterial protein LacZ served as the negative control. Transformed yeast cells were cultivated in 50 mL of uracil drop-out medium supplemented with 2% glucose for 48 hours shaking at 30° C. and 250 rpm. The cells were washed twice with water and inoculated in liquid media supplemented with 2% galactose, 1% raffinose to induce the expression of the recombinant proteins, and different concentrations of free fatty acids (0 to 1000 μM of oleic acid). […] Cell growth was measured for a period of 72 hours.

SMILES: CC(C)c1cc(C(C)C)c(CC(=O)NS(=O)(=O)Oc2c(C(C)C)cccc2C(C)C)c(C(C)C)c1 [avasimibe]
- efficacy against atherosclerosis [1]: ineffective against atherosclerosis
- harm [1]: probably harmful due to ACAT1 inhibition
- selectivity among ACAT isoforms (ACAT): nonselective ACAT inhibitors

SMILES: CCCCCCCC/C=C\CCCCCCCCCCCC(=O)O [erucic, erucic acid]
- selectivity of the media at lowered concentration [2]: did not substantially improve the selectivity

SMILES: CCCCCCCCN1CCc2c(C)c(CC(=O)O)c(C)c(NC(=O)C(C)(C)C)c21 [pactimibe]
- efficacy against atherosclerosis [1]: ineffective against atherosclerosis
- harm [1]: probably harmful due to ACAT1 inhibition
- selectivity among ACAT isoforms (ACAT): nonselective ACAT inhibitors

SMILES: CCCCCCCCCCCCCCCC(=O)O [palmitic, palmitic acid]
- selectivity of the media at lowered concentration [2]: did not substantially improve the selectivity

SMILES: CCCCC/C=C\C/C=C\CCCCCCCC(=O)O [linoleic, linoleic acid]
- suitability for selection [2]: suitable for selection
- growth of DGAT1 and LacZ cultures [2]: inhibited the growth of both cultures

SMILES: CC/C=C\C/C=C\C/C=C\CCCCCCCC(=O)O [α-linolenic, α-linolenic acid]
- suitability for selection [2]: suitable for selection
- growth of DGAT1 and LacZ cultures [2]: inhibited the growth of both cultures

SMILES: CCCCCCCCCCCCCCCCCC(=O)O [stearic, stearic acid]
- selectivity of the media at lowered concentration [2]: did not substantially improve the selectivity

SMILES: CCCCCCCC/C=C\CCCCCCCC(=O)O [oleic acid]
- concentration most effective in distinguishing strains with and without TAG synthase activity [3]: 1000 µM
- lowest concentration at which the inhibitory effect on growth was observed ([3]; knock-out strains without recombinant DGAT1): 25 µM
- colony formation on solid medium ([2]; 1000 μM oleic acid, five days at 30° C., DGAT1 vs LacZ): only the cells expressing the recombinant DGAT1 formed visible colonies
